Measured values as given in a melting point compilation (Tetko et al.).

melting point | SMILES
22.1 °C | C1=CCC(c2ccncc2)CC1 (stereo unspecified)
78 °C | CC(=O)Nc1ccccc1F
134 to 135 °C | CC1(c2ccccc2)CC(C(=NO)c2cc3cc(Br)ccc3o2)C1 (stereo unspecified)
325 °C | Nc1ncnc2[nH]ncc12
274 to 276 °C | O=c1[nH]c2scc(-c3ccccc3)c2c(=O)n1-c1ccc(Cl)c(Cl)c1
120 °C | CCOC(=O)C=Cc1c[nH]c2ccccc12
171 °C | O=[N+]([O-])c1cc([N+](=O)[O-])c(Nc2ccc3c(c2)OCCOCCOCCOCCO3)c(C(F)(F)F)c1
132 °C | COc1ccc(Br)cc1CC(NC(=O)OC(C)(C)C)C(=O)O (stereo unspecified)
191 °C | O=C1CC(=O)N(c2ccccc2)N1
99 °C | COc1cc(F)c(C=O)cc1OC
71 °C | CCOC(=O)c1cc(C)n(CO)n1
167 °C | C[Si](O)(c1ccccc1)c1ccccc1
47 °C | Cc1cc(C)c(CS)c(C)c1
28 to 32 °C | C1CCC(N2CCNCC2)CC1
125 °C | Cc1cc(C)c(N)c(C(O)c2ccccc2)c1 (stereo unspecified)
125 to 128 °C | CC1=NN(c2cccc(Cl)c2)C(=O)C1
56 °C | O=[N+]([O-])c1cc(F)c(Br)cc1F
31 °C | Cc1ccc(Br)c([N+](=O)[O-])c1
39 °C | COC(=O)c1cc(Cl)ccc1Br
200 °C | N#C/C(=N\Nc1cccc(C(=O)O)c1)c1nc2ccccc2s1
38 °C | Cc1cc2c(c(C)c1C)CC2
118 to 119 °C | CCOC(=O)c1c(C)n[nH]c1C
159 °C | O=C(c1ccccc1)C1SC(=S)N(c2ccccc2)C1=O (stereo unspecified)

melting point | SMILES
175 °C | Nc1c(Cl)cc([N+](=O)[O-])cc1Br
57 °C | O=C(O)CCCCCCCCCCBr
82 to 87 °C | CC(C)(C)c1cc(C=O)cc(C(C)(C)C)c1
156 °C | O=c1[nH]sc2ccccc12
163 to 166 °C | CC1(C)OC2C(CO)OC(n3ccc(=O)[nH]c3=O)C2O1 (stereo unspecified)
43 °C | Cc1ccc(Br)nc1
116 to 120 °C | CC(C=Cc1ccccc1)=NO
-101 °C | FC(Cl)C(F)Cl (stereo unspecified)
96 to 98 °C | NC(=S)c1ccsc1
127 °C | COc1cc(N)ccc1[N+](=O)[O-]
90 to 92 °C | O=Cc1ccc2nsnc2c1
130 to 131 °C | Nc1ccc(N2CCOCC2)cc1
100 °C | O=C1OC(=Cc2ccccc2)c2ccccc21
69 °C | CNC(=C[N+](=O)[O-])NCCSCc1ccc(CN(C)C)o1
27 °C | Cc1ccc2cccc(C)c2n1
134 to 139 °C | CCOC(=O)N1CCC2(CC1)C(=O)N(CO)CN2c1ccccc1
203 to 204 °C | CC(C)(C)NC(=S)c1cc(C(C)(C)C)c(O)c(C(C)(C)C)c1
66 to 69 °C | CO/C(C)=C(\C#N)c1ccccc1[N+](=O)[O-]
56 to 58 °C | Cc1nc(-c2cccc(CO)c2)no1
30 °C | CC(=O)c1cc(OC(F)(F)F)ccc1O
48 °C | CCCCCCCCCCCCCCCC(C)=O
190 °C | CC1(C)SC2C(N3C(=O)C(c4ccccc4)NC3(C)C)C(=O)N2C1C(=O)O (stereo unspecified)
87 to 89 °C | COc1cc(Br)c(CC#N)cc1OC

melting point | SMILES
-60 °C | OCC1CC1
81 to 83 °C | N#Cc1cnn(-c2ccccc2)c1-n1cccc1
23 °C | COc1cccc(C#N)c1
119 °C | BrC12CC3CC(CC(C3)C1)C2
70 to 71 °C | CC(=O)N(C)c1ccc(N)cc1
109 to 111 °C | N#Cc1ccc(-c2ccsc2)cc1
-55 °C | CC1=CCC2CC1C2(C)C (racemic)
99 °C | CC(C)(C)c1ccc2c(c1)C(=O)c1ccccc1C2=O
> 300 °C | O=[N+]([O-])c1ccccc1N1CSc2nnc(-c3ccccc3)n2C1
20 to 28 °C | Cc1cc(C)c2c(c1C)CC2
156 to 160 °C | O=C(O)CN(CC(=O)O)c1ccccc1
138 to 140 °C | NS(=O)(=O)C=Cc1ccccc1
136 to 139 °C | O=C(c1ccc(F)cc1)[C@H]1CCCC[C@H]1C(=O)O (relative stereo)
178 to 181 °C | COc1ccc(C(C=O)C=O)cc1
56 to 59 °C | ON=Cc1ccccc1O
-99 °C | C/C=C/Cl
192 to 195 °C | CC(NC(=O)COCCN1C(=O)c2ccccc2C1=O)C(=O)NC(CCC(=O)O)C(=O)O (stereo unspecified)
177 to 185 °C | ON=C(O)c1ccccc1O
167 °C | NS(=O)(=O)c1cccc([N+](=O)[O-])c1
277 °C | Cc1ccc(NN=C2C(=O)NN(c3ccccc3)C2=O)cc1
65.5 °C | Cc1ccc(S(=O)(=O)C2(C(=O)OC(C)C)CC2)cc1
196 °C | COc1cc(C=C2C(=O)NN=C2c2c(O)c3ccccc3n(C)c2=O)cc(OC)c1OC
112 °C | COC(=O)c1ccc(C(=O)OC)o1

melting point | SMILES
149 °C | COc1ccc(C(=O)CCC(=O)O)cc1
163 °C | O=C1C=CC(=O)c2c(Cl)cccc21
-74 °C | CC(C)(C)CC(C)(C)S
64 to 67 °C | O=[N+]([O-])c1cc(Br)cnc1Cl
51 to 52 °C | CCCCCCCCCCC#CC#CCCCCCCC(=O)O
104 to 105 °C | COc1cccc2cc(C(=O)C3CC(C)(c4ccccc4)C3)oc12 (stereo unspecified)
92.5 °C | O=c1c(C2CC(c3ccc(OCc4ccc(C(F)(F)F)cc4)cc3)Cc3ccccc32)c(O)oc2ccccc12 (stereo unspecified)
265 to 267 °C | CC12CCC(C(=CCC=C3C(=O)C4(C)CCC3C4(C)C)C1=O)C2(C)C
265 °C | CN1CC(c2ccccc2)(c2ccccc2)C(=O)c2c(cc(-c3ccccc3)c3ccccc23)C1=O
41.5 °C | CCSC(=O)COc1ccc(Cl)cc1C
71 °C | COc1cc(Cl)ccc1[N+](=O)[O-]
85 to 88 °C | CC(C)(C)OC(=O)N[C@@H](CSCc1ccccc1)C(=O)O
161 °C | N#Cc1ccc(Cl)cc1N
183 °C | O=[N+]([O-])c1cccc(-c2nnc3n2CN(c2ccccc2[N+](=O)[O-])CS3)c1
118 to 120 °C | CCCCCSc1ncccc1C(=O)O
-10.5 °C | CCCC(C1CCCCC1)C1CCCCC1
43 °C | CC(=O)c1sccc1Br
67 to 69 °C | Cc1nc(-c2cccc(S(=O)(=O)Cl)c2)no1
111 °C | Oc1ccccc1N1CCCC1
-34 °C | O=[N+]([O-])C1CCCCC1
75 °C | FC(F)(F)c1ccccc1CCc1ccccc1C(F)(F)F
130 °C | C=C(NC(C)=O)C(=O)CCC(N)=O
183 to 185 °C | CC(C)(C)c1cc(C(=O)NN)n(Cc2ccc(F)cc2)n1

melting point | SMILES
125 °C | CCOC(=O)C(CCc1ccccc1)NC(C)C(=O)N1Cc2ccccc2CC1C(=O)O (stereo unspecified)
312 °C | CC1(C)CC(=O)C2=C(C1)Nc1c(ccc3ccccc13)C2c1ccc(O)cc1 (stereo unspecified)
65 to 66 °C | OCc1cccc(-c2cncnc2)c1
97 to 99 °C | COc1ccc(-c2ocnc2C(=O)Cl)cc1
167 to 169 °C | CC12CCC(/C(=C/Nc3ccc(Cl)cc3)C1=O)C2(C)C (stereo unspecified)
177 °C | CC(=O)N1CCc2cc([N+](=O)[O-])ccc21
181 °C | Nc1ccc(S(=O)(=O)Nc2ccnn2-c2ccccc2)cc1
300 °C | O=C1c2ccccc2C(=C2c3ccccc3C(=O)c3ccccc32)c2ccccc21
29 °C | O=C(Cl)c1cc(I)ccc1F
58 °C | O=C(O)CCc1ccco1
125 to 126 °C | Clc1ncnc2ccsc12
82.5 °C | FC(F)(F)C(F)(F)C(F)(F)C(F)(F)C(F)(F)C(F)(F)C(F)(F)C(F)(F)CCI
95 °C | COc1cc(C(=O)Oc2ccc(/C=C/C(=O)c3ccccc3)cc2)cc(OC)c1OC
85 °C | Cc1ccc(C#N)cn1
64 °C | COC(=O)c1ccc(O)c(OC)c1
135 °C | CC(C)(C)C=C=C=C=CC(C)(C)C
287 to 289 °C | Oc1cc2c(cc1O)Cc1cc(O)c(O)cc1Cc1cc(O)c(O)cc1C2
172 °C | CC(=O)Nc1ccc2c(c1)CCC2=O
156 °C | O=C(O)CSc1cccc2cccc(Cl)c12
158 to 161 °C | CCCCC#Cc1cncc(C(=O)NN)c1
163 °C | Cc1ccc(OCC(=O)O)cc1C

SMILES | melting point
C=C1CC(=O)OC1=O | 69 °C
CCOP(=S)(OCC)Oc1ccc2c(C)c(Cl)c(=O)oc2c1 | 95 °C
O=C(CS(=O)C(c1ccccc1)c1ccccc1)NO (stereo unspecified) | 159 °C
Cn1cnc(S(=O)(=O)Cl)c1 | 85 to 90 °C
O=C(OC1CCCCC1)c1ccccc1C(=O)OC1CCCCC1 | 66 °C
CC(C)NC(=O)N1CC(=O)N(c2cc(Cl)cc(Cl)c2)C1=O | 136 °C
Cc1cccc(N=Nc2ccc(N(C)C)cc2)c1 | 138 °C
COCC(=O)N(c1c(C)cccc1C)C(C)C(=O)OC (stereo unspecified) | 71 °C
CC1(c2ccccc2)C(=O)NC(=O)NC1=O | 224 °C
O=C(O)C(Br)C(Br)C(=O)O (stereo unspecified) | 275 °C
CC(CCl)OC(C)CCl (stereo unspecified) | -97 °C
O=C1/C(=C/c2ccccc2O)SC(=S)N1CN(CCCl)CCCl | 233 °C
N#CCCO | -46 °C
CC[C@@]1(O)CC[C@]2(C)[C@H]3CC[C@]4(C)C(O)CC[C@H]4[C@@H]3CC[C@@]2(C)C1 (stereo partly specified) | 168 to 169 °C
FC(F)(F)C(F)(Cl)Cl | -56.6 °C
Cc1ccc(OP(=O)(Oc2ccc(C)c(C)c2)Oc2ccc(C)c(C)c2)cc1C | 72 °C
CC(C)(C)CCO | -60 °C
O=C(O)c1cc(S(=O)(=O)F)ccc1Cl | 148 to 151 °C
